# How the values were obtained:
# [1] = tested on: SDI-1 mRNA in HepG2 cells; experiment: Northern blot of SDI-1 mRNA (SDI-1/GAPDH) in 9NC-treated cells; assay type: cell-based, Human
# Description: Therefore, initial studies to evaluate the levels of SDI-1 were performed with low doses of 9NC. Total RNA was isolated from HepG2 cells treated with 5 nM and 20 nM 9NC for 72 h and the levels of SDI-1 mRNAs expression in cells were examined by Northern blot hybridization analysis. […] The relative amount of SDI-1 mRNA in each sample was calculated as the ratio of SDI-1/GAPDH.
# Caffeine abolishes G2 cell cycle checkpoint induced by DNA-damaging agents (Traganos, F. et al., Canc. Res. 53:4613-4618 (1993); Lau, C. C. et al., Proc. Natl. Acad. Sci. (U.S.A.) 79:2942-2946 (1982)). To assess the specificity of SDI-1 induction by 9NC, the levels of SDI-1 expressions were evaluated via Northern blot analysis after simultaneous addition of caffeine (1 mM) and 9NC. […] To establish the kinetics of 9NC-induced upregulation of SDI-1 gene, the cells cultured for 24 h in control medium were treated with 20 nM of 9NC for 0.5 h, 1.5 h, 3 h, 6 h, 12 h, and 24 h respectively.
# [2] = tested on: HepG2 cells; experiment: Cell number by cell counter; assay type: cell-based, Human; conditions: 20 nM; 72 h
# Description: (§1) Human hepatoblastoma cells, HepG2 cells were obtained from the American Type Culture Collection and maintained in RPMI-1640 medium (GIBCO, Grand Island, N.Y.) supplemented with 10% fetal bovine serum (GIBCO), 100 units/ml of penicillin, […] of streptomycin, […] of amphotericin (Sigma Chemical Co.), and 4 mM L-glutamine (GIBCO). The cell cultures were incubated at 37° C. in a humidified CO2 (5%) atmosphere. The cell number in untreated and 9NC-treated cultures was determined with the aid of cell counter (Coulter Electric, Inc., Hialeah, Fla.) and cell viability was monitored by trypan blue dye exclusion.
# This inhibitory effect was not associated with cell death as assessed by trypan blue dye exclusion.
# [3] = tested on: HepG2 cells; experiment: Phase contrast microscopy, cell size; assay type: cell-based, Human; conditions: 9NC-treated cells
# Excerpt: After 3 to […] of treatment the morphology of the cells remained stable with very little change during the three to four week culture period. Overall, cells appeared to be healthy and metabolically active, and resembled the morphology of primary human hepatocytes grown on plastic surfaces. Virtually no cell proliferation was observed following removal of 9NC and the cells maintained a differentiated phenotype without growth.
# [4] = tested on: HepG2 cells; experiment: BrdU incorporation ELISA, DNA synthesis; assay type: cell-based, Human; conditions: 20 nM; 72 h
# Description: as §1
# DNA synthesis was measured by 5-bromo-2′-deoxy-uridine (BrdU) incorporation into cellular DNA following 24 h and 72 h. treatment with 9NC using the Cell Proliferation Assay Kit-BrdU/ELISA (Boehringer Mannheim Corp.). Inhibition of DNA synthesis correlated with the length of 9NC treatment and the concentration of 9NC in the cell culture.
# [5] = tested on: HepG2 cells; experiment: Cell Proliferation Kit-XTT, metabolic activity; assay type: cell-based, Human; conditions: 20 nM; 72 h
# Description: The effect of 9NC (5 to 80 nM) on cell proliferation and DNA synthesis was evaluated by the Cell Proliferation Kit-XTT (Boehringer Mannheim Corp., IN), a non-radioactive, calorimetric ELISA assay which reflects mitochondrial dehydrogenase activity. The assay is based on the cleavage of the yellow tetrazolium salt XTT to form an orange formazan dye by dehydrogenase activity in active mitochondria. This conversion occurs only in living cells and correlates with their overall metabolic activity.
# as §1
# 9NC was semisynthesized from CPT and purified as described by Wani, M. C. et al. (J. Med. Chem. 29:2358-2363 (1986)). A fine suspension of 9NC (10 μM) was prepared in polyethylene glycol (PEG 400; Aldrich, Milwaukee, Wis.), divided into small aliquots and stored at −80° C. until used. […]
# [6] = tested on: SDI-1 mRNA; experiment: Northern analysis of SDI-1 RNA after DNA damaging / growth arrest agents; conditions: bleomycin 75 μg/ml 4 hr; etoposide 400 μM 8 hr; H2O2 400 μM 1 hr; MMS 100 μg 4 hr; Mitomycin C 5 μg/ml 30 hr; CdCl2 250 μM 1 hr; hydroxyurea 2 mM 24 hr; prostaglandin A2 10 μg/ml 24 hr
# Description: (§2) To evaluate the effect of DNA damaging agents on SDI mRNA production, normal human neonatal foreskin fibroblast cells (strain HCA2); an immortalized cell line (TE85, obtainable from the American Type Culture Collection, Rockville, Md., US), and the above-described MDAH 041 cell lines were employed. All cells were cultured in Eagle's minimal essential medium with Earl's salts plus 10% fetal bovine serum (Gibco BRL, Gaithersburg, Md., US) in 5% CO2 at 37° C., or in Hanks salts plus 10% fetal bovine serum at 37° C. HCA2 cells achieve approximately 80 population doublings before becoming senescent. The cells were used at population doubling 27 or less.
# (§3) For UV irradiation, cells were cultured in 150 cm^2 tissue culture dishes. Immediately prior to treatment the medium was removed and the dishes, without lids, were placed in a Stratagene (La Jolla, Calif., US) StratalinkerUV cross-linking device and irradiated with a dose of 30 J/m^2. Fresh serum-supplemented medium was then added and the cells were incubated at 37° C., 5% CO2. γ-irradiation was performed on cells in complete cell culture medium in 25 cm^2 tissue culture flasks, using a fixed ^137Cs source. The dose rate was 4.21 Gy/min. Exposure was to 4 Gy.
# (§4) Tritiated thymidine was added 16 hours following each such treatment and the cells were incubated for 8 hours, fixed and processed for autoradiography; as described above. RNA was harvested 4 or 24 hours post treatment using RNAzol B (Cinna/Biotecx, Houston, Tex.) according to the manufacturer's protocol. 10-20 μg of RNA was separated on a 1.2% agarose gel with 20% formaldehyde, transferred to a Gene screen plus (EN, Boston, Mass.) membrane, probed, and quantitated. Fold induction was determined by comparing treated samples with untreated controls. Controls were mock treated cells put through the same washing, media change, transportation, and inadvertent temperature fluctuation as those receiving treatment. Controls for agents dissolved in ethanol or dimethyl sulfoxide were exposed to the same concentration of the solvent alone. SDI-1 RNA values were normalized to GAPBH levels.
# [7] = tested on: normal human neonatal foreskin fibroblast cells (strain HCA2); experiment: Growth arrest by tritiated thymidine incorporation after DNA damaging / growth arrest agents; assay type: cell-based; conditions: doses as in Table 10; tritiated thymidine added 16 hours after treatment for 8 hours
# Description: as §2, §3, §4
# [8] = tested on: SDI-1 message in TE85; experiment: SDI-1 message level after agents in cells lacking functional p53; assay type: cell-based, human; conditions: TE85 (mutant p53); agents of Table 10
# Description: as §2, §4
# (§5) This gene also requires functional p53 for induction by γ-irradiation but not by most other agents (Zhan, Q. et al., Molec. Cell. Biol. 13:4242-4250 (1993)). GADD45 is a member of a family of genes that were identified based upon their induction by both growth arrest and DNA damage (Fornace, A. J. et al., Molec. Cell. Biol. 9:4196-4203 (1989)). […] The above methods can be used to identifiy such additional regulators.
# [9] = tested on: SDI-1 message in MDAH 041; experiment: as above; assay type: cell-based, human; conditions: MDAH 041 (no p53); agents of Table 10
# Description: as §2, §4, §5
# [10] = tested on: cells in medium containing 0.5% FBS; experiment: SDI-1 antisense oligonucleotide, tritiated thymidine incorporation in low serum; assay type: cell-based; conditions: 1, 2 or 5 μM on Days 1, 3, 5; harvested day 7
# Description: Cells were cultured in medium containing 10% fetal bovine serum (FBS) for approximately one week, at which time the medium was replaced with medium containing 0.5% FBS. The cells were divided into control cells and experimental cells. On Day 1, experimental cells were provided with either 1, 2 or 5 μM of the above-described oligonucleotide; Control cells received no oligonucleotide. On Day 3, and again on Day 5, all cells received fresh medium containing 0.5% FBS; experimental cells received additional oligonucleotides (1, 2 or 5 μM). On Day 6, tritiated thymidine was added to the culture media and the cells were harvested on day 7.
# [11] = target: T1, cyclin/cdk2 complexes (Homo sapiens, UniProt P24941); experiment: Histone H1 kinase activity of cyclin/cdk2 complexes immunoprecipitated from HeLa cell extracts; assay type: biochemical; conditions: complexes immunoprecipitated by cdk2 antisera
# T1 construct: immunoprecipitated from HeLa cell extracts by cdk2 antisera; endogenous in cells; host or cells: HeLa cell extracts, immunoprecipitated with cdk2 antisera
# Excerpt: The physiological significance of inhibition of cell proliferation by overexpression of SDI-1 is strengthened by the finding that SDI-1 can inhibit the kinase activity of cyclin/cdk2 complexes.
# […]
# [12] = tested on: young cells; experiment: Cellular uptake of GST-SDI-1 fusions and quiescence; assay type: cell-based
# [13] = target: T2, cdk2 protein (Homo sapiens, UniProt P24941); experiment: Binding of in vitro translated SDI-1 deletion mutants to purified cdk2, anti-cdk2 immunoprecipitation; conditions: 45 μl translation product, 1 ug cdk2, 4° C.
# T2 construct: host or cells: baculovirus expression system
# Description: To determine whether the DNA synthesis inhibition caused by these mutants was occurring through inhibition of cdk kinases, the binding of in vitro translated deletion mutant proteins products with purified cdk2protein was examined. Thus, the various deletion mutants of SDI-1 were translated in reticulocyte lysates (Promega) using pBluescript based plasmids as transcription templates for the T7 RNA polymerase. For in vitro binding, 45 μl of the translation product was added to 500 μl binding buffer (50 mM Tris/HCl, pH 7.5, 120 mM NaCl, 2 mM EDTA, 0.1% NP-40, 1 mM NaF, 0.1 m.M sodium vanidate, 5 μg/ml leupeptin, 5 μg/ml soybean trypsin inhibitor, 5 μg/ml aprotinin) containing 1 ug cdk2 protein purified from a bacculovirus expression system. The mixture was gently rocked for 1 hour at 4° C. and then 7.5 μg anti-cdk2 rabbit polyclonal antibody was added. Mixing was continued for 1 hour at 4° C. The immunocomplex was absorbed by incubation with 40 μl protein G plus A beads for 2 hr. The matrices were then washed three times with 0.5 ml of binding buffer prior to electrophoresis and autoradiography.
molecule,measurement,setting,value
CC[C@@]1(O)C(=O)OCc2c1cc1n(c2=O)Cc2cc3c([N+](=O)[O-])cccc3nc2-1 [9NC],time at which SDI-1 gene expression reached maximum,"[1]; 20 nM, 0.5-24 h",24 h
same,increase in SDI-1 expression (SDI-1/GAPDH),"[1]; 20 nM, 72 h",At least 3 fold
same,decrease in cell numbers,[2],at least 2 fold
same,increased cell size,[3],2 to 5 fold
same,decrease in DNA synthesis,[4],at least 4 fold
same,suppression of metabolic activity,[5],approximately 20%
"[Cl][Cd][Cl] [CdCl2, cadmium chloride]",SDI-1 Level (Fold induction of SDI-1 at 24 hour level),[6],1.3 Fold induction
same,% Growth Arrest,[7],0%
"OO [H2O2, hydrogen peroxide]",SDI-1 message level (Control = 1),[8],4.0
same,SDI-1 message level (Control = 1),[9],3.3
same,% Growth Arrest,[7],95%
"COS(C)(=O)=O [MMS, methyl methane sulfonate]",% Growth Arrest,[7],53%
"CO[C@@]12[C@H](COC(N)=O)C3=C(C(=O)C(C)=C(N)C3=O)N1C[C@@H]1N[C@@H]12 [Mitomycin C, mitomycin C]",SDI-1 message level (Control = 1),[8],2.5
same,SDI-1 Level (Fold induction of SDI-1 at 24 hour level),[6],2.8 Fold induction
same,% Growth Arrest,[7],100%
Cn1c(=O)c2c(ncn2C)n(C)c1=O [caffeine],effect on SDI-1 expression,[1]; caffeine (1 mM) alone,no appreciable effect
same,effect on 9NC-dependent induction of SDI-1 expression,[1]; simultaneous addition of caffeine (1 mM) and 9NC,abrogated
COc1cc([C@@H]2c3cc4c(cc3[C@@H](O[C@@H]3O[C@@H]5CO[C@@H](C)O[C@H]5[C@H](O)[C@H]3O)[C@H]3COC(=O)[C@H]23)OCO4)cc(OC)c1O [etoposide],% Growth Arrest,[7],100%
NC(=O)NO [hydroxyurea],SDI-1 message level (Control = 1),[8],7.5
same,SDI-1 message level (Control = 1),[9],2.5
same,% Growth Arrest,[7],100%
CCCCC[C@H](O)/C=C/[C@H]1C=CC(=O)[C@@H]1C/C=C\CCCC(=O)O [prostaglandin A2],SDI-1 Level (Fold induction of SDI-1 at 24 hour level),[6],6.1 Fold induction
same,% Growth Arrest,[7],100%
AGCCGGTTCTGACATGGCG (chemistry not given here) [antisense oligonucleotide],tritiated thymidine incorporated into DNA relative to control cells,[10],increase
"GST-SDI-1 fusion protein: Schistosoma japonicum GST 1-226, hinge Pro-Arg-Gly-Asp-Pro-Pro-Ala, SDI-1; SEQ ID NO:11; printed as SDI-1 in Table 8",amount giving half maximal inhibition of histone H1 kinase activity,[11],250 ng
same,quiescence of exposed young cells,[12],exhibited quiescence
same,detection of fusion protein within the cells,[12]; provided to young cells,detectable within the cells
bleomycin,SDI-1 Level (Fold induction of SDI-1 at 24 hour level),[6],11.8 Fold induction
same,% Growth Arrest,[7],100%
"72-77: SDI-1 mutant with amino acids 72-77 deleted, HA tagged (protein, left off: small tags and cut ends, SDI-1 mutant with amino acids 72-77 deleted, HA tagged) MSEPAGDVRQNPCGSKACRRLFGPVDSEQLSRDCDALMAGCIQEARERWNFDFVTETPLEGDFAWERVRGLPRGLPTGPRRGRDELGGGRRPGTSPALLQGTAEEDHVDLSLSCTLVPRSGEQAEGSPGGPGDSQGRKRRQTSMTDFYHSKRRLIFSKRKP",binding to purified cdk2 protein,[13],bound cdk2 protein efficiently
